Where two headings read alike, the source gives them in different places. Blank lines part the entries; values can stand above or below the molecule they belong to.
Experiments:
[1] = Bioavailability test: blood drug concentration after oral administration of suspensions to rats; format: in vivo; conditions: rat, suspension in distilled water, male rats fasted for 12 hours
Experimental: In order to investigate the bioavailability of the powder according to the present invention, cilostazol powder prepared in Example 6 and unprocessed cilostazole as a control group (average particle size: 3 to 5 μm, Dongwoo Co., Ltd.) were suspended in distilled water, respectively. The suspensions having equivalent amounts of cilostazole were each orally administered to three male rats fasted for 12 hours. Blood samples were taken from the ophthalmic vein of the rats immediately after the administration, and 0.5, 1, 2, 4 and 7 hours after the administration to determined the blood drug concentration changes with time. Also the maximum blood concentration (Cmax, μg/ml) and the area under the blood drug concentration-time curve (AUC, μg*hr/ml) were calculated, and the results are shown in Table 8.

[2] = Experimental: 0.15 g of naproxen (TCI Chem) having an average particle size of 3 to 10 μm, 0.15 g of lactose and 0.03 g of hydroxypropy cellulose (HPC) were added to 3.4 ml of a saturated aqueous solution of lactose, and the mixture was wet ground using an oscillating mill at the room temperature for 30 minutes. The slurry mixture thus obtained was centrifuged at 4° C., 15,000 rpm for 30 minutes, and the residue in the bottom layer was vacuum dried for 24 hours to obtain a powder.
In the above process, the averaged particle size of naproxen particles was measured for 1) a test solution obtained by redispering 0.02 ml of the slurry mixture obtained after wet grinding in 10 ml of distilled water, and 2) an another test solution obtained by redispersing 0.01 g of the dried powder in 8 ml of distilled water, by using a laser scattering particle size analyzer (LA-910, Horiba). The redispersion was conducted by shaking the mixture with a hand.
Additional powders were prepared by repeating the above-mentioned procedure except for using sucrose, mannitol, trehalose, sorbitol and xylitol, respectively, instead of lactose, and naproxen particle sizes were measured by the same procedure.

[3] = Particle size of tacrolimus in redispersed powder with and without ultrasonic irradiation, laser scattering particle size analyzer; format: physicochemical; conditions: lactose
Experimental: 0.01 g of each of the powders thus obtained was redispersed using an ultrasonic irradiation (frequency: 39 kHz). The particle of the tacrolimus was measured by using a laser scattering particle size analyzer (LA0910, Horiba) for each of the test solution with and without the ultrasonic irradiation, and the results are shown in Table 4.

[4] = Particle size of cilostazol (lactose/SLS ratio) after redispersion of slurry or dried powder in distilled water, laser scattering particle size analyzer; format: physicochemical; conditions: Lactose 225 g, SLS 225 g
[5] = Particle size of active ingredient (cilostazol, fenofibrate, itraconazole) powders redispersed in distilled water, laser scattering particle size analyzer; format: physicochemical; conditions: powder redispersed in aqueous solution, surface stabilizer HPC, dispersion agent SUCROSE
Experimental: 1.2 g of each of the active ingredient, 0.2 g of hydroxypropyl cellulose and 1.2 g of sucrose were added to 6.1 g of distilled water containing a saturated solution of sucrose, an appropriate amount of zirconia bead having the average particle size of 1 mm were added thereto, and the mixture was roll ground at a rate of 108 rpm for 5 days. The slurry mixture thus obtained was screened to remove the beads, and the residue was high-pressure filtered (pressure: 640 mmHg) using the sound pressure, followed by vacuum drying to obtain powders.

[6] = Particle size of cilostazol (lactose/SLS ratio) after redispersion of slurry or dried powder in distilled water, laser scattering particle size analyzer; format: physicochemical
Experimental: 0.45 g of cilostazol (Dongwoo Co., Ltd.) and 0.15 g of hydroxypropyl cellulose were added to 5.1 ml of the saturated aqueous solution of lactose. […] The slurry mixture thus obtained was high-pressure filtered (pressure: 640 mmHg) using a sound pressure and freeze dried for 1 day to obtain powders.

[7] = HPC, amount of lactose 20% by weight of active ingredient
[8] = HPC, amount of lactose 60% by weight of active ingredient
[9] = HPC, amount of lactose 100% by weight of active ingredient
[10] = HPC, amount of lactose 140% by weight of active ingredient
[11] = HPC, amount of lactose 180% by weight of active ingredient
[12] = dispersion agent Lactose, surface stabilizer PVP 10,000
[13] = dispersion agent Lactose, surface stabilizer PVP 29,000
[14] = dispersion agent Lactose, surface stabilizer PVP 55,000
[15] = dispersion agent Lactose, surface stabilizer PVP 130,000
[16] = dried powder redispersed in distilled water, surface stabilizer HPC, dispersion agent Lactose
[17] = dried powder redispersed, HPC, dispersion agent Mannitol
[18] = dried powder redispersed, HPC, dispersion agent Sorbitol
[19] = dried powder redispersed, HPC, dispersion agent Sucrose
[20] = dried powder redispersed, HPC, dispersion agent Trehalose
[21] = dried powder redispersed, HPC, dispersion agent Xylitol
[22] = drying powder redispersed, Lactose 90 g, SLS 360 g
[23] = drying powder redispersed, Lactose 360 g, SLS 90 g
[24] = slurry mixture redispersed after wet grinding, Lactose 90 g, SLS 360 g
[25] = slurry mixture redispersed after wet grinding, Lactose 225 g, SLS 225 g
[26] = slurry mixture redispersed after wet grinding, Lactose 360 g, SLS 90 g

- Cmax ([1]; read-out: Cmax (maximum blood concentration)): 150 ± 80 ng/mL
- AUC ([1]; samples to 7 hours, read-out: AUC (area under the blood drug concentration-time curve)): 580 ± 90 ng·h/mL
SMILES: O=C1CCc2cc(OCCCCc3nnnn3C3CCCCC3)ccc2N1 [Cilostazol raw material, cilostazol]

- Average particle size [2, 7]: 3,025 nm
- Particle Size (D10~D90) [2, 7]: 154~4,292 nm
- Average particle size [2, 8]: 500 nm
- Particle Size (D10~D90) [2, 8]: 339~629 nm
- Average particle size [2, 9]: 164 nm
- Particle Size (D10~D90) [2, 9]: 40~260 nm
- Average particle size [2, 10]: 391 nm
- Particle Size (D10~D90) [2, 10]: 109~316 nm
- Average particle size [2, 11]: 208 nm
- Particle Size (D10~D90) [2, 11]: 108~310 nm
- Average particle size [2, 12]: 16,800 nm
- Particle Size (D10~D90) [2, 12]: 868.3~507.1 nm
- Average particle size [2, 13]: 156.9 nm
- Particle Size (D10~D90) [2, 13]: 95.9~208.7 nm
- Average particle size [2, 14]: 192.4 nm
- Particle Size (D10~D90) [2, 14]: 120.8~250.3 nm
- Average particle size [2, 15]: 275.8 nm
- Particle Size (D10~D90) [2, 15]: 150.6~417.5 nm
- Average particle size [2, 16]: 164.1 nm
- Particle Size (D10~D90) [2, 16]: 40.3~259.6 nm
- Average particle size ([2]; dried powder redispersed in distilled water, surface stabilizer HPC, dispersion agent Lactose, listed as naproxen): about 164 nm
- Average particle size [2, 17]: 450 nm
- Particle Size (D10~D90) [2, 17]: 319.8~564.6 nm
- Average particle size [2, 18]: 413.6 nm
- Particle Size (D10~D90) [2, 18]: 280.4~532.7 nm
- Average particle size [2, 19]: 297.1 nm
- Particle Size (D10~D90) [2, 19]: 192.9~393.9 nm
- Average particle size [2, 20]: 241.6 nm
- Particle Size (D10~D90) [2, 20]: 162.8~312.5 nm
- Average particle size [2, 21]: 637.9 nm
- Particle Size (D10~D90) [2, 21]: 291.3~675.9 nm
- average particle size of naproxen particles ([2]; slurry mixture after wet grinding redispersed in distilled water, HPC, lactose): about 133 nm
SMILES: COc1ccc2cc([C@H](C)C(=O)O)ccc2c1 [Naproxen, naproxen]

- Particle size according to the ultrasonic irradiation time ([3]; surface stabilizer Hydroxyproply cellulose, 0 minute ultrasonic irradiation): 4,980 nm
- Particle size according to the ultrasonic irradiation time ([3]; surface stabilizer Hydroxyproply cellulose, 1 minute ultrasonic irradiation (39 kHz)): 220 nm
- Particle size according to the ultrasonic irradiation time ([3]; surface stabilizer Poloxamer 407, 0 minute ultrasonic irradiation): 510 nm
- Particle size according to the ultrasonic irradiation time ([3]; surface stabilizer Poloxamer 407, 1 minute ultrasonic irradiation (39 kHz)): 420 nm
- Particle size according to the ultrasonic irradiation time ([3]; surface stabilizer Polyvinylpyrrolidone, 0 minute ultrasonic irradiation): 1,561 nm
- Particle size according to the ultrasonic irradiation time ([3]; surface stabilizer Polyvinylpyrrolidone, 1 minute ultrasonic irradiation (39 kHz)): 610 nm
SMILES: C=CC[C@@H]1/C=C(\C)C[C@H](C)C[C@H](OC)[C@H]2O[C@@](O)(C(=O)C(=O)N3CCCC[C@H]3C(=O)O[C@H](/C(C)=C/[C@@H]3CC[C@@H](O)[C@H](OC)C3)[C@H](C)[C@@H](O)CC1=O)[C@H](C)C[C@@H]2OC [tacrolimus]

- Particle size range D10 ([4]; drying powder redispersed): 240 nm
- Particle size range D50 ([4]; drying powder redispersed): 350 nm
- Particle size range D90 ([4]; drying powder redispersed): 490 nm
- Particle size range D50 ([4]; slurry mixture redispersed after wet grinding): 330 nm
- Average particle size [5]: 170 nm
- Range of particle size ([5]; in nm): 120~228
- Average particle size [6, 22]: 350 nm
- Particle size range D10 [6, 22]: 230 nm
- Particle size range D50 [6, 22]: 340 nm
- Particle size range D90 [6, 22]: 390 nm
- Average particle size ([6]; drying powder redispersed, Lactose 225 g, SLS 225 g): 360 nm
- Average particle size [6, 23]: 200 nm
- Particle size range D10 [6, 23]: 150 nm
- Particle size range D50 [6, 23]: 200 nm
- Particle size range D90 [6, 23]: 270 nm
- Average particle size [6, 24]: 340 nm
- Particle size range D10 [6, 24]: 230 nm
- Particle size range D50 [6, 24]: 340 nm
- Particle size range D90 [6, 24]: 470 nm
- Average particle size [6, 25]: 340 nm
- Particle size range D10 [6, 25]: 230 nm
- Particle size range D90 [6, 25]: 470 nm
- Average particle size [6, 26]: 190 nm
- Particle size range D10 [6, 26]: 140 nm
- Particle size range D50 [6, 26]: 180 nm
- Particle size range D90 [6, 26]: 250 nm
SMILES: O=C1CCc2cc(OCCCCc3nnnn3C3CCCCC3)ccc2N1 [Cilostazol, cilostazol]
